pIC50: −log10 of the molar value. The source made the active and inactive calls. No cut-off for these calls is given here.
Columns and labels:
HepG2 [1] = assay: Induction of apoptosis in human HepG2 cells assessed as late apoptotic cells at 100 nM measured after 48 hrs by Annexin V-FITC/PI double staining based flow cytometry analysis (Rvb= 2.89%); assay type: functional
MCF7 = assay: Cytotoxicity against human MCF7 cells assessed as inhibition of cell proliferation measured after 48 hrs by MTT assay; assay type: functional, cell-based; conditions: MCF7, 48 h
PC-3 = assay: Cytotoxicity against human PC-3 cells assessed as inhibition of cell proliferation measured after 48 hrs by MTT assay; assay type: functional, cell-based; conditions: PC-3, 48 h
HepG2 [2] = assay: Antitumor activity against human HepG2 cells xenografted in zebra fish AB assessed as tumor growth inhibition at 1 uM measured after 48 hrs by fluorescence microscopic analysis; assay type: functional, cell-based
[3] = Cytotoxicity against human A549/DDP cells assessed as inhibition of cell proliferation measured after 48 hrs by MTT assay; assay type: functional, cell-based
HepG2 [4] = assay: Cytotoxicity against human HepG2 cells assessed as increase in release of LDH measured after 48 hrs by LDH assay; assay type: functional, cell-based; conditions: dose 100-200 nM
[5] = Toxicity in zebrafish AB assessed as increase in hatching rate at 0.05 to 2 uM measured at 72 hrs postfertilization; parameters: species or system Danio rerio; conditions: in vivo, dose 0.05-2 µM
HepG2 [6] = assay: Induction of apoptosis in human HepG2 cells assessed as necrotic cells at 75 nM measured after 48 hrs by Annexin V-FITC/PI double staining based flow cytometry analysis (Rvb= 0.13%); assay type: functional
HepG2 [7] = assay: Induction of mitochondrial membrane potential loss in human HepG2 cells assessed as proportion of cells with hyperpolarized mitochondria at 50 nM measured after 48 hrs by JC-1 staining based flow cytometry analysis (Rvb= 80.9%); assay type: functional
HepG2 [8] = assay: Induction of apoptosis in human HepG2 cells assessed as early apoptotic cells at 50 nM measured after 48 hrs by Annexin V-FITC/PI double staining based flow cytometry analysis (Rvb= 2.16%); assay type: functional
[9] = Toxicity in zebrafish AB assessed as malformation rate at <12 uM measured at 72 hrs postfertilization; parameters: species or system Danio rerio; conditions: in vivo
NCI-H1975 = assay: Cytotoxicity against human NCI-H1975 cells assessed as inhibition of cell proliferation measured after 48 hrs by MTT assay; assay type: functional, cell-based; conditions: NCI-H1975, 48 h
HepG2 [10] = assay: Induction of apoptosis in human HepG2 cells assessed as necrotic cells at 50 nM measured after 48 hrs by Annexin V-FITC/PI double staining based flow cytometry analysis (Rvb= 0.13%); assay type: functional
HepG2 [11] = assay: Induction of mitochondrial membrane potential loss in human HepG2 cells assessed as proportion of cells with hyperpolarized mitochondria at 150 nM measured after 48 hrs by JC-1 staining based flow cytometry analysis (Rvb= 80.9%); assay type: functional
[12] = Cytotoxicity against human HBE cells assessed as inhibition of cell proliferation measured after 48 hrs by MTT assay; assay type: cell-based
HepG2 [13] = assay: Induction of mitochondrial membrane potential loss in human HepG2 cells assessed as proportion of cells with depolarized mitochondria at 100 nM measured after 48 hrs by JC-1 staining based flow cytometry analysis (Rvb= 9.1%); assay type: functional
[14] = Drug uptake in mitochondria of human HepG2 cells at 10 uM incubated for 7 hrs by RP-HPLC method relative to TP; assay type: ADME; conditions: hepg2, 7 h
[15] = Toxicity in zebrafish AB assessed as mortality at 0.05 to 2 uM measured at 72 hrs postfertilization; parameters: species or system Danio rerio; conditions: in vivo, dose 0.05-2 µM
[16] = Hepatotoxicity in transgenic zebrafish Tg(1-fabp:EGFP) assessed as liver damage by measuring decrease in fluorescence intensity and area at 0.05 to 0.5 uM measured after 96 hrs; assay type: toxicity, tissue-based, Danio rerio; conditions: in vivo, dose 0.05-0.5 µM
HepG2 [17] = assay: Antitumor activity against human HepG2 cells xenografted in zebra fish AB assessed as tumor growth inhibition at 0.5 to 1 uM measured after 48 hrs by fluorescence microscopic analysis; assay type: functional, cell-based; conditions: dose 0.5-1 µM
HepG2 [18] = assay: Induction of apoptosis in human HepG2 cells assessed as live cells at 150 nM measured after 48 hrs by Annexin V-FITC/PI double staining based flow cytometry analysis (Rvb= 94.8%); assay type: functional
[19] = Toxicity in zebrafish AB assessed as body length at 0.05 to 2 uM measured at 72 hrs postfertilization; parameters: species or system Danio rerio; conditions: in vivo, dose 0.05-2 µM
HepG2 [20] = assay: Induction of mitochondrial membrane potential loss in human HepG2 cells assessed as proportion of cells with depolarized mitochondria at 75 nM measured after 48 hrs by JC-1 staining based flow cytometry analysis (Rvb= 9.1%); assay type: functional
HepG2 [21] = assay: Induction of mitochondrial membrane potential loss in human HepG2 cells assessed as proportion of cells with hyperpolarized mitochondria at 200 nM measured after 48 hrs by JC-1 staining based flow cytometry analysis (Rvb= 80.9%); assay type: functional
HepG2 [22] = assay: Induction of apoptosis in human HepG2 cells assessed as necrotic cells at 150 nM measured after 48 hrs by Annexin V-FITC/PI double staining based flow cytometry analysis (Rvb= 0.13%); assay type: functional
HepG2 [23] = assay: Induction of apoptosis in human HepG2 cells assessed as live cells at 50 nM measured after 48 hrs by Annexin V-FITC/PI double staining based flow cytometry analysis (Rvb= 94.8%); assay type: functional
[24] = Toxicity in zebrafish AB assessed as increase in embryo malformation rate at 0.05 to 2 uM measured at 72 hrs postfertilization; parameters: species or system Danio rerio; conditions: in vivo, dose 0.05-2 µM
HeLa = assay: Cytotoxicity against human HeLa cells assessed as inhibition of cell proliferation measured after 48 hrs by MTT assay; assay type: functional, cell-based
HepG2 [25] = assay: Induction of apoptosis in human HepG2 cells assessed as necrotic cells at 100 nM measured after 48 hrs by Annexin V-FITC/PI double staining based flow cytometry analysis (Rvb= 0.13%); assay type: functional
PANC-1 = assay: Cytotoxicity against human PANC-1 cells assessed as inhibition of cell proliferation measured after 48 hrs by MTT assay; assay type: functional, cell-based; conditions: PANC-1, 48 h
L02 = assay: Cytotoxicity against human HL7702 cells assessed as inhibition of cell proliferation measured after 48 hrs by MTT assay; assay type: cell-based; conditions: L02, 48 h
HepG2 [26] = assay: Induction of apoptosis in human HepG2 cells assessed as early apoptotic cells at 75 nM measured after 48 hrs by Annexin V-FITC/PI double staining based flow cytometry analysis (Rvb= 2.16%); assay type: functional
HepG2 [27] = assay: Induction of apoptosis in human HepG2 cells assessed as live cells at 100 nM measured after 48 hrs by Annexin V-FITC/PI double staining based flow cytometry analysis (Rvb= 94.8%); assay type: functional
[28] = Toxicity in zebrafish AB assessed as hatching rate at <12 uM measured at 72 hrs postfertilization; parameters: species or system Danio rerio; conditions: in vivo
HepG2 [29] = assay: Induction of apoptosis in human HepG2 cells assessed as late apoptotic cells at 75 nM measured after 48 hrs by Annexin V-FITC/PI double staining based flow cytometry analysis (Rvb= 2.89%); assay type: functional
HepG2 [30] = assay: Induction of apoptosis in human HepG2 cells assessed as induction of morphological changes by measuring nuclear shrinkage and cleavage at 25 to 100 nM measured after 48 hrs by DAPI staining based inverted fluorescence microscope analysis; assay type: functional, cell-based; conditions: dose 25-100 nM
HepG2 [31] = assay: Induction of apoptosis in human HepG2 cells assessed as late apoptotic cells at 150 nM measured after 48 hrs by Annexin V-FITC/PI double staining based flow cytometry analysis (Rvb= 2.89%); assay type: functional

## CC(C)[C@]12O[C@H]1[C@@H]1O[C@]13[C@]1(O[C@H]1C[C@H]1C4=C(CC[C@@]13C)C(=O)OC4)[C@@H]2OC(=O)CCCCC[P+](c1ccccc1)(c1ccccc1)c1ccccc1.[Br-]
HepG2 [1]
  Activity: 12.1%
MCF7
  pIC50: 6.62
PC-3
  pIC50: 6.73
HepG2 [2]
  Activity: Active
[3]
  pIC50: < 5.00
HepG2 [4]
  Activity: Dose-Dependent Effect
[5]
  Activity: Non-Toxic
HepG2 [6]
  Activity: 0.17%
HepG2 [7]
  Activity: 74.7%
HepG2 [8]
  Activity: 3.89%
[9]
  Activity: Non-Toxic
NCI-H1975
  pIC50: 7.06
HepG2 [10]
  Activity: 0.63%
HepG2 [11]
  Activity: 51.1%
[12]
  pIC50: 6.68
HepG2 [13]
  Activity: 45.6%
[14]
  fold change (FC): 3
[15]
  Activity: Non-Toxic
[16]
  Activity: Non-Toxic
HepG2 [17]
  Activity: Active
HepG2 [18]
  Activity: 49.6%
[19]
  Activity: Non-Toxic
HepG2 [20]
  Activity: 35.6%
HepG2 [21]
  Activity: 44.3%
HepG2 [22]
  Activity: 0.1%
HepG2 [23]
  Activity: 91.2%
[24]
  Activity: Non-Toxic
HeLa
  pIC50: 6.49
HepG2 [25]
  Activity: 0.18%
PANC-1
  pIC50: 6.46
L02
  pIC50: 6.48
HepG2 [26]
  Activity: 15.5%
HepG2 [27]
  Activity: 59.9%
[28]
  Activity: Non-Toxic
HepG2 [29]
  Activity: 7.47%
HepG2 [30]
  Activity: Active
HepG2 [31]
  Activity: 16.6%
